The values that follow come from ChEMBL document CHEMBL3351440, “Synthesis of diethylamino-curcumin mimics with substituted triazolyl groups and their sensitization effect of TRAIL against brain cancer cells” (2014).

Calls of active or inactive are those of the source. No cut-off for these calls is given here.

Assay [1] deals with CRT-MG. Put plainly: (§1) Induction of TRAIL-mediated human CRT-MG cell death at 10 uM after 24 hrs by LDH release assay relative to control. In kind it is functional.
Assay [2] can be described thus: Induction of apoptosis in human CRT-MG cells assessed as cell death at 10 uM after 24 hrs by LDH release assay. In kind it is functional. In general terms: Release of lactate dehydrogenase indicates damage to the cell membrane.
The test system of assay [3] is CRT-MG. Put plainly: (§2) Cytotoxicity against TRAIL-induced human CRT-MG cells at 50 uM after 24 hrs. In kind it is functional.
The nature of assay [4]: as §1. In kind it is functional.
Assay [5] is described as follows: as §2. It is filed as functional.
A further assay deals with LNCaP. Put plainly: Cytotoxicity against TRAIL-induced human LNCAP cells assessed as caspase 3 activity at 10 uM after 48 hrs by MTS colorimetric assay relative to control. In kind it is functional. (In general: Formazan colour is commonly taken as a measure of viable cells.)
The nature of assay [6]: Cytotoxicity against TRAIL-induced human U87MG cells assessed as cleavage of procaspase 3/8 at 10 uM after 48 hrs by MTS colorimetric assay. In kind it is functional, U-87MG ATCC.
Assay [7] in a line: Cytotoxicity against TRAIL-induced human U251MG cells assessed as cleavage of procaspase 3/8 at 10 uM after 48 hrs by MTS colorimetric assay. In kind it is functional, U-251.
Assay [8] is described as follows: Induction of apoptosis in human CRT-MG cells assessed as inhibition of cell proliferation at 10 uM after 24 hrs. In kind it is functional.

In the case of `CCN(CC)c1ccc(/C=C/C(=O)c2cccc(-n3cc(-c4ccc(F)cc4)nn3)c2)cc1`, the outcome in the assay on CRT-MG [1] was Active. Further, the Activity in [2] is <20%.

Turning to `CCN(CC)c1ccc(/C=C/C(=O)c2cccc(-n3cc(-c4ccc(OC)cc4)nn3)c2)cc1`, the outcome in the assay with CRT-MG [1] was Active. Further, the Activity in [2] was <20%.

As for `CCN(CC)c1ccc(/C=C/C(=O)c2cccc(-n3cc(-c4ccccc4C(F)(F)F)nn3)c2)cc1`, the result in the assay with CRT-MG [3] and in the assay with CRT-MG [1] was Active. Also, the Activity in [2] is recorded as <20%.

On to `CCN(CC)c1ccc(/C=C/C(=O)c2cccc(-n3cc(-c4ccccc4)nn3)c2)cc1`, for which the outcome with CRT-MG [3] was Active. Also, in [4], the “fold change (FC)” value is 2.5. In addition, the Activity in assay [2] came out at 14.3%.

With `CCN(CC)c1ccc(/C=C/C(=O)c2cccc(-n3cc(C(C)(C)O)nn3)c2)cc1`, the figures for the Activity in assay [5] and in assay [2] were <20% and 13.3%, respectively. The “fold change (FC)” value in assay [4] worked out at 2.5.

As for `CCN(CC)c1ccc(/C=C/C(=O)c2cccc(-n3cc(-c4cc(F)cc(F)c4)nn3)c2)cc1`, in assay [2], the Activity is listed as <20%.

As for `C=C(C)c1cn(-c2cccc(C(=O)/C=C/c3ccc(N(CC)CC)cc3)c2)nn1`, the outcome in the assay on CRT-MG [1] was Active. Also, in assay [2], the Activity is recorded as <20%.

For `CCCCCc1ccc(-c2cn(-c3cccc(C(=O)/C=C/c4ccc(N(CC)CC)cc4)c3)nn2)cc1`, the outcome in the assay with CRT-MG [1] was Active. Further, the Activity in [2] is given as <20%.

For the compound `COc1cc(/C=C/C(=O)CC(=O)/C=C/c2ccc(O)c(OC)c2)ccc1O` [CURCUMIN], the Ratio in the assay with LNCaP was 2. In addition, the Activity in [6] was found to be 45%; in [7] it was 60%.

As to `CCN(CC)c1ccc(/C=C/C(=O)c2cccc(-n3cc(-c4cccc(Cl)c4)nn3)c2)cc1`, in the assay with CRT-MG [1], the outcome was Active. Besides, in [2], the Activity is given as <20%.

On to `CCN(CC)c1ccc(/C=C/C(=O)c2cccc(N=[N+]=[N-])c2)cc1`, for which the inhibition at 10 µM in [8] was 55.6%. Moreover, the values for the Activity in assay [4] and in assay [2] were 78.3% and 27.8%, respectively.

On to `CCN(CC)c1ccc(/C=C/C(=O)c2cccc(-n3cc(-c4ccc(C)cc4)nn3)c2)cc1`, for which the result in the assay with CRT-MG [1] was Active. The Activity in [2] is listed as <20%.

On to `CCN(CC)c1ccc(/C=C/C(=O)c2cccc(-n3cc(-c4ccc(Br)cc4)nn3)c2)cc1`, for which the Activity in [5] was <20%. The result with CRT-MG [1] was Active.

For orientation: inhibition means how much of the control response was suppressed.
